Test results from patent US20160000938A1, “REAGENT FOR DIAGNOSIS OF OSTEOARTHRITIS COMPRISING PEPTIDE PROBE OF APOPEP-1” (priority 2013, published 2016).
“Also recorded” adds a separate entry of the source.

Assays:
[1] = system: apoptotic chondrocytes of DMM-operated articular cartilage; assay: In situ immunofluorescence staining and TUNEL assay of OA cartilage cryo-sections; set-up: species or system mice
Description: Hind limbs of mice were fixed with 4% paraformaldehyde in 0.1 M phosphate-buffered saline (PBS, pH 7.4) for 12 hours, and decalcified with 10% ethylene-diamine tetraacetic acid (EDTA, pH 7.4) for 3 weeks. Decalcified tissues were dipped in 20% sucrose/PBS solution overnight and embedded in OCT compound (Tissue-Tek) for making the frozen samples. Frozen samples were cut at 10 μm thickness from femur to tibia range for joint visible. Cut slices from each animal were selected for the staining with same primary antibodies to comparison at the same area of joint articular cartilage. The section was treated with a blocking solution (0.1% tween-20, 1% bovine serum albumin (BSA), 5% normal donkey serum in PBS) after washing with PBS, and then incubated at 4° C. 1 h with the primary antibodies such as rabbit polyclonal collagen 2 antibody (1:200; abcam, MA, USA), mouse monoclonal MMP-13 antibody (1:200; abcam, MA, USA). After PBS rinses, the sections were incubated with Alexa-594 or Alexa-488-conjugated secondary antibody for 30 min. Thereafter, the sections were incubated with 4′,6′-diamidino-2-phenylindole (DAPI, Sigma-Aldrich, St Louis, Mo., USA) for nuclear staining then mounted with a ProLong® Antifade Kit (Invitrogen, USA). […]

[2] = system: arthritic joints of DMM mice; assay: In vivo optical imaging of fluorescence-labeled ApoPep-1 probe in DMM OA mice; set-up: species or system C57BL/6N mice; conditions: for OARSI grade of OA at which the probe detects OA / apoptotic chondrocytes: DMM model
Description: (§1) Male mice at 12 weeks of age were divided into three groups: Sham-ApoPep-1, OA-Control Peptide and OA-ApoPep-1 group (n=4-8/group). For OA model, we performed DMM surgery as described in previous studies (8, 23).
(§2) FlammaTM675-ApoPep-1 was intravenously (i.v.) injected from the tail vain (1 mM 100 μl/20 g) and allowed to circulate for the indicated time periods. In vivo optical imaging was conducted by scanning the mice under anesthesia by inhalation of isofluran (jw pharmaceutical, South Korea) in 80% N2O/20% O2 using Optix Explore (ART, Montreal, Canada). The excitation/emission wavelengths for FlammaTM675 were 676 nm/704 nm. Ex vivo optical imaging was performed with extracted hind limbs by the same method. FlammaTM675-NSSSVDK was used as the control peptide (18).

[3] = system: arthritic joints of DMM mice; assay: Ex vivo optical imaging of extracted hind limbs of DMM mice; assay type: in vivo, C57BL/6N mice
Description: as §1, §2

[4] = system: ATDC5 chondrocyte cell treated with staurosporine; assay: In vitro binding to apoptotic chondrocytes (immunocytochemistry); assay type: cell-based; conditions: fluorescence staining; for binding to apoptotic cells: chondrocytes treated with staurosporine; for binding to live cells: live chondrocytes
Description: ATDC5 chondrocyte cell was maintained in a mixture of DMEM and Ham's F-12 (DMEM/F12) medium (Lonza, USA) containing 5% fetal bovine serum (FBS) (Gibco-BRL, USA), 10 ug/ml of human transferrin (Sigma) and 3×10^-8 M of sodium selenite (Sigma) and penicillin/streptomycin. Apoptosis was induced by incubating cells with 0.5 uM Staurosporine (cell signaling, USA) for the indicated time periods. Apoptotic stages were determined by staining the cells with annexin V and ApoPep-1 conjugated with flamma 675. For immunocytochemistry staining, cells were incubated with 1% bovine serum albumin at 37° C. for 30 min for blocking and then binding with 10 μM flamma 675-conjugated peptide at 4° C. for 1 h. Cells were then costained with Alexa-594-annexin V (Invitrogen, Carlsbad, Calif., USA) for 15 min at room temperature in binding buffer (10 mM HEPES, pH 7.4, 140 mM NaCl, and 2.5 mM CaCl2). After fixation, cells were incubated with DAPI for nuclear staining and mounted with a ProLong® Antifade Kit.

Row | Substance | correlation of TUNEL staining with ApoPep-1 signals ([1]; DMM models 2 weeks after surgery) | localisation of ApoPep-1 relative to type II collagen and MMP13 ([1]; DMM-operated articular cartilage, 2 weeks after surgery) | time after DMM operation at which the probe can detect apoptotic change ([2]; DMM OA model) | OARSI grade of OA at which the probe detects OA / apoptotic chondrocytes [2] | OARSI grade of OA at which the probe detects OA / apoptotic chondrocytes ([2]; listed as ApoPep1) | ApoPep-1 fluorescent signal from arthritic joints compared with 4 weeks ([2]; i.v. injection, 8 weeks after DMM operation) | optimal time point for diagnosis after injection ([2]; i.v. injection, DMM mice) | time after injection after which ApoPep-1 binding is undetectable ([2]; i.v. injection, DMM mice) | time after injection of maximal ApoPep-1 binding ([2]; i.v. injection, DMM mice) | fluorescent signal time course after probe injection ([2]; images from 30 minutes to 24 hours after i.v. administration, DMM mice) | ApoPep-1 fluorescent signal from arthritic joints ([2]; in vivo, i.v. injection, 4 weeks after DMM operation) | ApoPep-1 fluorescent signal from arthritic joints compared with sham-ApoPep-1 and OA-control-Peptide groups ([2]; in vivo, i.v. injection, one week after DMM operation) | ApoPep-1 fluorescent signal from arthritic joints compared with sham-ApoPep-1 and OA-control-Peptide groups ([2]; in vivo, i.v. injection, two weeks after DMM operation) | ApoPep-1 fluorescent signal from arthritic joints ([3]; 4 weeks after DMM operation) | ApoPep-1 fluorescent signal from arthritic joints compared with sham-ApoPep-1 and OA-control-Peptide groups ([3]; two weeks after DMM operation) | binding to apoptotic cells [4] | binding to live cells [4]
1 | CQRPPR [ApoPep-1] | strongly correlated | detected where type II collagen decreased and MMP13 increased | 2 weeks | grade I OA; also recorded: Grades I | Grade II | reduced | 30 min | 8 h | 30 min | clearly detectable from arthritic joint sat 30 minutes after the probe injection and decreased according to time course | maximal | no significant difference | detected strongly; also recorded: significant increase | maximal | significant increase | bind to apoptotic cells | not to live cells
2 | annexin V: a 36 kDa protein that binds to phosphatidylserine, early marker of apoptotic cell death [reference compound] | – | – | – | – | – | – | – | – | – | – | – | – | – | – | – | bind to apoptotic cells | not to live cells
